Data from patent US20080145313A1, “Compositions and Methods for the Treatment and Prevention of Neoplastic Disorders” (Genesis Research & Development Corporation Limited, priority 2006, published 2008).

Tested on: A549 cells
Test: Growth inhibition of siRNA-transfected A549 cells, SYBR Green I DNA content
Format: cell-based, human
Conditions: 10 nM siRNA; DNA content 96 hours after transfection
Method: A549 cells (human lung cancer cell line; ATCC No. CCL-185), SK-MeI-5 cells (human melanoma cell line; ATCC No. HTB-70), MCF-7 cells (human adenocarcinoma cell line; ATCC No. HTB-22), HCT-116 cells (colorectal carcinoma; ATCC CCL-247) and HCT-116 p53 null cells (derived from ATCC No. CCL-247; Bunz et al., Science 282:1497-1501, 1998) were cultured in RPMI 1640 medium with 10% v/v heat-inactivated fetal calf serum (FCS). Cells were seeded at a density of 5×10^4 cells/cm^2 in multi-well tissue culture plates. Sequences of Stealth™ siRNA duplexes (Invitrogen) targeting human ribonucleotide reductase subunit 1 (SEQ ID NO: 22) and subunit 2 (SEQ ID NO; 38) are given in SEQ ID NO: 4830-4832 (DNA), and SEQ ID NO: 5136-5138 (RNA) for RRM1, and SEQ ID NO: 5306-5308 (DNA), and SEQ ID NO: 5303-5305 (RNA) for RRM2. siRNAs were transfected at different concentrations into cells using Lipofectamine™ RNAiMAX transfection reagent (Invitrogen). Non-specific siRNA (SEQ ID NO: 4804 and 4805 (DNA), and SEQ ID NO: 5301 and 5302 (RNA)) were used as controls. The cellular DNA content was measured using a SYBR Green I-based fluorometric assay at 24, 48, 72 and 96 hours after transfection (120 hours for the MCF-7 cells), as follows. At the indicated time points following reverse transfection, cells were harvested and frozen at −80° C. overnight. Cells were thawed and cell lysis buffer (phosphate-buffered saline (PBS) containing 1% Triton X-100, pH 7) and SYBR Green I (1:10^5 V/V; Invitrogen) was added to the wells and incubated overnight in the dark at 4° C.
The following day, cell lysates were mixed thoroughly, and DNA fluorescence was measured with a Wallac Victor^2 plate reader (Turku, Finland) set at an excitation frequency of 485 nm and measuring emission at 535 nm.
To determine the duration of the knock-down effect of RRM1-targeting siRNA, A549 cells were reverse transfected with 1 or 10 nM RRM1-3 (SEQ ID NO: 4832 (DNA, and SEQ ID NO: 5138 (RNA)) or control siRNA (SEQ ID NO: 4804 (DNA), and SEQ ID NO: 5301 (RNA)), and growth followed over time. Growth inhibition was measured daily as described above for up to ten days. RRM1-3-mediated RRM1 silencing inhibited growth for at least 10 days post-transfection at both 1 and 10 nM (FIG. 11).
siRNA-mediated inhibition of cancer cell growth was determined in A549 cells as follows. A549 cells (human lung cancer cell line; ATCC No. CCL-185) were cultured in RPMI 1640 medium with 10% v/v heat-inactivated fetal calf serum. Cells were seeded at a density of 5×10^3 cells/cm^2 in multi-well tissue culture plates. Stealth™ siRNA duplexes (Invitrogen) targeting genes involved in cancer energy and metabolism pathways and listed in Table 9, were transfected at 10 nM into cells using Lipofectamine™ RNAiMAX transfection reagent (Invitrogen). Non-specific siRNA (SEQ ID NO: 4804 and 4805 (DNA), and SEQ ID NO: 5301 and 5302 (RNA)) were used as controls. The cellular DNA content was measured using a SYBR Green I-based fluorometric assay at 96 hours after transfection. The cells were harvested and frozen at −80° C. overnight. Cells were thawed and cell lysis buffer (phosphate-buffered saline (PBS) containing 1% Triton X-100, pH 7) and SYBR Green I (1:10^5 v/v; Invitrogen) was added to the wells and incubated overnight in the dark at 4° C. The following day, cell lysates were mixed thoroughly, and DNA fluorescence was measured with a Wallac Victor^2 plate reader (Turku, Finland) set at an excitation frequency of 485 nm and measuring emission at 535 nm.
Three different siRNAs were tested for each target gene. The average fluorescence units from three replicate wells, representing the amount of DNA per well, were used to determine the effect on growth inhibition. The results are given in Table 10 (energy and metabolism gene targets) and Table 11 (transporter gene targets).
siRNA-mediated RNAi was also determined on a panel of different cell lines. […]

Substance | Growth Inhibition in A549 cells
SEQ ID NO: 4837: siRNA targeting DHFR (chain 1 TTTCAAAGTCTTGCATGATCCTTGT; chain 2 UUUCAAAGUCUUGCAUGAUCCUUGU; chemistry not given here; one strand in two spellings) | − (no growth inhibition with any siRNA)
SEQ ID NO: 4838: siRNA targeting DHFR (chain 1 TTCTGGCAGAAGTTTATATTTCTCC; chain 2 UUCUGGCAGAAGUUUAUAUUUCUCC; chemistry not given here; one strand in two spellings) | + (inhibits by at least 50%)
SEQ ID NO: 4839: siRNA targeting AK1 (chain 1 TTCTGCACGATCTTCTCACACTGGG; chain 2 UUCUGCACGAUCUUCUCACACUGGG; chemistry not given here; one strand in two spellings) | − (no growth inhibition with any siRNA)
SEQ ID NO: 4840: siRNA targeting AK1 (chain 1 TAGCCATCAATCAGGAAGCCTTTGG; chain 2 UAGCCAUCAAUCAGGAAGCCUUUGG; chemistry not given here; one strand in two spellings) | + (inhibits by at least 50%)
SEQ ID NO: 4841: siRNA targeting AK1 (chain 1 AAACTCTTCTCCTTGCTGCACCTCC; chain 2 AAACUCUUCUCCUUGCUGCACCUCC; chemistry not given here; one strand in two spellings) | − (no growth inhibition with any siRNA)
SEQ ID NO: 4842: siRNA targeting NADSYN (chain 1 TAGCTGATCTGGTTCACGATGGTGC; chain 2 UAGCUGAUCUGGUUCACGAUGGUGC; chemistry not given here; one strand in two spellings) | + (inhibits by at least 50%)
SEQ ID NO: 4843: siRNA targeting NADSYN (chain 1 ATGAGCTGCAAACAGAGGGCTCTTC; chain 2 AUGAGCUGCAAACAGAGGGCUCUUC; chemistry not given here; one strand in two spellings) | − (no growth inhibition with any siRNA)
SEQ ID NO: 4844: siRNA targeting NADSYN (chain 1 TTTCTATGCACCGAAACTGCCAAGG; chain 2 UUUCUAUGCACCGAAACUGCCAAGG; chemistry not given here; one strand in two spellings) | − (no growth inhibition with any siRNA)
SEQ ID NO: 4845: siRNA targeting FLAD1 (chain 1 TTTGAGTGGAACTGAACAGCTGGGT; chain 2 UUUGAGUGGAACUGAACAGCUGGGU; chemistry not given here; one strand in two spellings) | + (inhibits by at least 50%)
SEQ ID NO: 4846: siRNA targeting FLAD1 (chain 1 TGATGTGTATCCTCGGTCATACAGG; chain 2 UGAUGUGUAUCCUCGGUCAUACAGG; chemistry not given here; one strand in two spellings) | − (no growth inhibition with any siRNA)
SEQ ID NO: 4847: siRNA targeting FLAD1 (chain 1 TGCAATGGTGGCTACCTCATCAGGT; chain 2 UGCAAUGGUGGCUACCUCAUCAGGU; chemistry not given here; one strand in two spellings) | − (no growth inhibition with any siRNA)
SEQ ID NO: 4848: siRNA targeting COX5A (chain 1 ATAGCAGCGAACTGACTGGATAGCC; chain 2 AUAGCAGCGAACUGACUGGAUAGCC; chemistry not given here; one strand in two spellings) | ++ (inhibits by at least 75%)
SEQ ID NO: 4849: siRNA targeting COX5A (chain 1 CAATTCCCAGGCATCTATATCTGGC; chain 2 CAAUUCCCAGGCAUCUAUAUCUGGC; chemistry not given here; one strand in two spellings) | − (no growth inhibition with any siRNA)
SEQ ID NO: 4850: siRNA targeting COX5A (chain 1 ATTTAAAGTTGGTCTAAGTTCCTGG; chain 2 AUUUAAAGUUGGUCUAAGUUCCUGG; chemistry not given here; one strand in two spellings) | − (no growth inhibition with any siRNA)
SEQ ID NO: 4851: siRNA targeting ATP5B (chain 1 TTTCCATGAACTCTGGAGCCTCAGC; chain 2 UUUCCAUGAACUCUGGAGCCUCAGC; Both strands are one antisense strand in DNA/RNA notation, chemistry not given here, further chemistry not given here; one strand in two spellings) | − (no growth inhibition with any siRNA)
SEQ ID NO: 4852: siRNA targeting ATP5B (chain 1 AATCATTGCCTTCACGGGTCCTCTC; chain 2 AAUCAUUGCCUUCACGGGUCCUCUC; Both strands are one antisense strand in DNA/RNA notation, chemistry not given here, further chemistry not given here; one strand in two spellings) | − (no growth inhibition with any siRNA)
SEQ ID NO: 4853: siRNA targeting ATP5B (chain 1 TATACCAGCGCTACCTTAGAGGTGG; chain 2 UAUACCAGCGCUACCUUAGAGGUGG; Both strands are one antisense strand in DNA/RNA notation, chemistry not given here, further chemistry not given here; one strand in two spellings) | + (inhibits by at least 50%)
SEQ ID NO: 4854: siRNA targeting FASN (chain 1 ATGAAGCTCACCCAGTTATCCTTCC; chain 2 AUGAAGCUCACCCAGUUAUCCUUCC; Both strands are one antisense strand in DNA/RNA notation, chemistry not given here, further chemistry not given here; one strand in two spellings) | − (no growth inhibition with any siRNA)
SEQ ID NO: 4855: siRNA targeting FASN (chain 1 TTGGAAGGCACATCCCAGAGGAAGT; chain 2 UUGGAAGGCACAUCCCAGAGGAAGU; Both strands are one antisense strand in DNA/RNA notation, chemistry not given here, further chemistry not given here; one strand in two spellings) | + (inhibits by at least 50%)
SEQ ID NO: 4856: siRNA targeting FASN (chain 1 CTTCGATGTATTCAAATGACTCAGG; chain 2 CUUCGAUGUAUUCAAAUGACUCAGG; Both strands are one antisense strand in DNA/RNA notation, chemistry not given here, further chemistry not given here; one strand in two spellings) | − (no growth inhibition with any siRNA)
